“And” between values parts separate entries of the source, which are not always exact repeats. Equal values may be shown once. Toxic doses and inconclusive results are not listed. Cut-off read from the data, not from the text of the source: active = T/C of 150% or more; inactive = T/C below 125%.
Test system: L1210 leukemia ip in BDF1 mice, survival T/C
Assay: NCI In Vivo Anticancer Drug Screen. Data for tumor model L1210 Leukemia (intraperitoneal) in B6D2F1 (BDF1) mice
Conditions: endpoint: mean survival time, higher = longer survival
Outline: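 Transplantable tumor model; survival measured in treated vs vehicle control mice. Value = treated/control.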

[1] = dose: 50.0 mg/kg/injection, schedule: Q01DX009 (ip), vehicle: saline
[2] = dose: 100.0 mg/kg/injection, schedule: Q01DX009 (ip), vehicle: Klucel (hydroxypropylcellulose) (HPC)
[3] = dose: 100.0 mg/kg/injection, schedule: Q04DX003 (ip), vehicle: Klucel (hydroxypropylcellulose) (HPC)
[4] = dose: 200.0 mg/kg/injection, schedule: Q04DX003 (ip), vehicle: Klucel (hydroxypropylcellulose) (HPC)
[5] = dose: 400.0 mg/kg/injection, schedule: Q01DX009 (ip), vehicle: Klucel (hydroxypropylcellulose) (HPC)
[6] = dose: 400.0 mg/kg/injection, schedule: Q04DX003 (ip), vehicle: Klucel (hydroxypropylcellulose) (HPC)
[7] = dose: 100.0 mg/kg/injection, schedule: Q01DX001 (ip), vehicle: saline
[8] = dose: 200.0 mg/kg/injection, schedule: Q01DX001 (ip), vehicle: saline
[9] = dose: 400.0 mg/kg/injection, schedule: Q01DX001 (ip), vehicle: saline
[10] = dose: 50.0 mg/kg/injection, schedule: Q04DX002 (ip), vehicle: saline with Tween-80
[11] = dose: 200.0 mg/kg/injection, schedule: Q04DX003 (ip), vehicle: saline with Tween-80
[12] = dose: 75.0 mg/kg/injection, schedule: Q01DX001 (ip), vehicle: saline
[13] = dose: 300.0 mg/kg/injection, schedule: Q01DX001 (ip), vehicle: saline
[14] = dose: 100.0 mg/kg/injection, schedule: Q04DX003 (ip), vehicle: saline with Tween-80
[15] = dose: 50.0 mg/kg/injection, schedule: Q01DX009 (ip), vehicle: Klucel (hydroxypropylcellulose) (HPC)
[16] = dose: 200.0 mg/kg/injection, schedule: Q01DX009 (ip), vehicle: Klucel (hydroxypropylcellulose) (HPC)

Measured: T/C

CN(C)CCC=C1c2ccccc2C=Cc2ccccc21
inactive: dose: 3.12 mg/kg/injection, schedule: Q01DX009 (ip), vehicle: saline 98 % of control | dose: 6.25 mg/kg/injection, schedule: Q01DX009 (ip), vehicle: saline 93 % of control and 104 % of control | dose: 12.5 mg/kg/injection, schedule: Q01DX009 (ip), vehicle: saline 107 % of control and 96 % of control | dose: 25.0 mg/kg/injection, schedule: Q01DX009 (ip), vehicle: saline 98 % of control and 101 % of control | dose: 25.0 mg/kg/injection, schedule: Q04DX003 (ip), vehicle: saline 112 % of control and 103 % of control | [1] 109 % of control | dose: 50.0 mg/kg/injection, schedule: Q04DX003 (ip), vehicle: saline 98 % of control and 105 % of control

CCOC(=O)C(C(=O)OCC)N(CC)CC
inactive: [2] 96 % of control | [3] 98 % of control | [4] 93 % of control | [5] 95 % of control | [6] 109 % of control

CCCCCCCCCc1cc(C)cc(Cc2cc(C)cc(CCCCCCCCC)c2O)c1O
inactive: [7] 98 % of control | [8] 98 % of control | [9] 101 % of control

Nc1c(OCCc2ccccc2)cccc1C(=O)O
inactive: dose: 100.0 mg/kg/injection, schedule: Q01DX001 (ip), vehicle: Klucel (hydroxypropylcellulose) (HPC) 97 % of control | dose: 200.0 mg/kg/injection, schedule: Q01DX001 (ip), vehicle: Klucel (hydroxypropylcellulose) (HPC) 96 % of control | dose: 400.0 mg/kg/injection, schedule: Q01DX001 (ip), vehicle: Klucel (hydroxypropylcellulose) (HPC) 93 % of control

CC1=C(C)C(C)(Cl)C1(C)Cl (centres undefined)
inactive: dose: 75.0 mg/kg/injection, schedule: Q01DX001 (ip), vehicle: acetone 108 % of control | dose: 150.0 mg/kg/injection, schedule: Q01DX001 (ip), vehicle: acetone 95 % of control

CCN(CC)C(=S)Oc1ccc(OC(=S)N(CC)CC)cc1
inactive: dose: 12.5 mg/kg/injection, schedule: Q04DX002 (ip), vehicle: saline with Tween-80 93 % of control | dose: 25.0 mg/kg/injection, schedule: Q04DX002 (ip), vehicle: saline with Tween-80 97 % of control | [10] 93 % of control | [11] 89 % of control | dose: 400.0 mg/kg/injection, schedule: Q04DX003 (ip), vehicle: saline with Tween-80 91 % of control

Cc1ccc(S(=O)(O)=S)cc1.[Fe]
inactive: [12] 88 % of control | [13] 86 % of control

C/C=C1\CN2CCC34CC5C6CC7c8c(c9ccccc9n8C)CC(C6COC5(C)OC35C2CC1C(C(=O)OC)N5c1ccccc14)N7C (centres undefined)
inactive: [14] 87 % of control

CC(=O)OC1CCC2(C)C3=C(CCC2C1(C)C)C1(C)CCC(C(C)CCC=C(C)C)C1(C)CC3 (centres undefined)
inactive: [15] 102 % of control | [2] 94 % of control

O=C1C2CCC(C2)C1C(O)(C(F)(F)F)C(F)(F)F (centres undefined)
inactive: dose: 25.0 mg/kg/injection, schedule: Q01DX009 (ip), vehicle: saline with Tween-80 101 % of control | dose: 50.0 mg/kg/injection, schedule: Q01DX009 (ip), vehicle: saline with Tween-80 100 % of control | dose: 50.0 mg/kg/injection, schedule: Q04DX003 (ip), vehicle: saline with Tween-80 101 % of control | dose: 100.0 mg/kg/injection, schedule: Q01DX009 (ip), vehicle: saline with Tween-80 91 % of control | [14] 98 % of control | [11] 91 % of control

[CH3][Sb]1([CH3])([CH3])[O]S(=O)(=O)[O]1
inactive: [12] 97 % of control | dose: 150.0 mg/kg/injection, schedule: Q01DX001 (ip), vehicle: saline 102 % of control | [13] 105 % of control

Nc1ncnc2oc(-c3ccccc3)c(-c3ccccc3)c12
inactive: [10] 91 % of control | dose: 100.0 mg/kg/injection, schedule: Q04DX002 (ip), vehicle: saline with Tween-80 88 % of control

CCCCCc1ccc(C)cc1OC(=O)CCl
inactive: dose: 28.0 mg/kg/injection, schedule: Q01DX Z (ip), vehicle: methylcellulose (MC) 97 % of control | dose: 42.0 mg/kg/injection, schedule: Q01DX Z (ip), vehicle: methylcellulose (MC) 97 % of control | dose: 62.0 mg/kg/injection, schedule: Q01DX Z (ip), vehicle: methylcellulose (MC) 92 % of control

O=C(O)c1c(F)c(F)c(-c2c(F)c(F)c(C(=O)O)c(F)c2F)c(F)c1F
inactive: dose: 100.0 mg/kg/injection, schedule: Q01DX001 (ip), vehicle: saline with Tween-80 93 % of control | dose: 200.0 mg/kg/injection, schedule: Q01DX001 (ip), vehicle: saline with Tween-80 95 % of control | dose: 400.0 mg/kg/injection, schedule: Q01DX001 (ip), vehicle: saline with Tween-80 93 % of control

CC(C#N)NCc1ccc2c(c1)OCO2 (centres undefined)
inactive: dose: 50.0 mg/kg/injection, schedule: Q01DX001 (ip), vehicle: carboxymethylcellulose (CMC) 112 % of control | dose: 200.0 mg/kg/injection, schedule: Q01DX001 (ip), vehicle: carboxymethylcellulose (CMC) 96 % of control

CC(C)(CO)C(O)C(=O)NN (centres undefined)
inactive: [7] 91 % of control | [8] 94 % of control

CCCCSc1cc(C)nc(SCCCC)n1
inactive: [15] 101 % of control | [2] 101 % of control | [16] 101 % of control

COc1ccc(C(=O)NC(=S)Nc2cccc(Cl)c2)cc1
inactive: [2] 91 % of control | [3] 94 % of control | [16] 98 % of control | [4] 91 % of control | [5] 87 % of control | [6] 93 % of control

C[N+]1(C2CCC3CCC2C3O)CCCCC1 (centres undefined)
inactive: [1] 100 % of control | dose: 100.0 mg/kg/injection, schedule: Q01DX009 (ip), vehicle: saline 110 % of control | dose: 100.0 mg/kg/injection, schedule: Q04DX003 (ip), vehicle: saline 101 % of control | dose: 200.0 mg/kg/injection, schedule: Q01DX009 (ip), vehicle: saline 110 % of control | dose: 200.0 mg/kg/injection, schedule: Q04DX003 (ip), vehicle: saline 101 % of control

O=C(CCl)NCCCCCNC(=O)CCl
inactive: [2] 104 % of control | [16] 105 % of control

Cc1c2c(ccc3ccccc32)cc2cccc[n+]12
inactive: dose: 2.0 mg/kg/injection, schedule: Q01DX Z (ip), vehicle: saline 101 % of control | dose: 4.0 mg/kg/injection, schedule: Q01DX Z (ip), vehicle: saline 116 % of control

CNc1ccccc1C(=O)N/N=C/Cc1ccccc1
inactive: dose: 100.0 mg/kg/injection, schedule: Q04DX002 (ip), vehicle: Klucel (hydroxypropylcellulose) (HPC) 103 % of control | dose: 200.0 mg/kg/injection, schedule: Q04DX002 (ip), vehicle: Klucel (hydroxypropylcellulose) (HPC) 92 % of control | dose: 400.0 mg/kg/injection, schedule: Q04DX002 (ip), vehicle: Klucel (hydroxypropylcellulose) (HPC) 106 % of control

NC(N)=N/N=C(/C(=N\N=C(N)N)c1ccco1)c1ccco1
inactive: dose: 8.0 mg/kg/injection, schedule: Q01DX Z (oral), vehicle: methylcellulose (MC) 89 % of control | dose: 15.0 mg/kg/injection, schedule: Q01DX Z (ip), vehicle: methylcellulose (MC) 100 % of control | dose: 15.0 mg/kg/injection, schedule: Q01DX Z (oral), vehicle: methylcellulose (MC) 96 % of control | dose: 30.0 mg/kg/injection, schedule: Q01DX Z (oral), vehicle: methylcellulose (MC) 105 % of control

Cc1nn[nH]n1
inactive: [7] 119 % of control | [8] 105 % of control | [9] 105 % of control

— PubChem BioAssay AID248 (DTP/NCI, 2004)
